Test results from patent US4141986A, “Antibiotics 890A2 and 890A5” (Merck & Co., Inc., priority 1977, dated 1979).

Tests used:
Format in all cases: cell-based
[1] = tested on: Vibrio percolans + Aerobacter Lactamase MB-1272; assay: In vitro antibacterial spectrum profile, agar diffusion, with Aerobacter lactamase; settings: Comamonas terrigena, read-out: Inhib. Zone Diam.
[2] = tested on: Streptoccocus faecium MB-2820; assay: In vitro antibacterial spectrum profile, agar diffusion; settings: read-out: Inhib. Zone Diam.
[3] = tested on: Alcaligenes faecalis ATCC 213; assay: as above; settings: read-out: Inhib. Zone Diam.
[4] = tested on: Proteus vulgaris ATCC 21100; assay: as above; settings: read-out: Inhib. Zone Diam.
[5] = tested on: Staphylococcus aureus MB-698; assay: as above; settings: read-out: Inhib. Zone Diam.
[6] = tested on: Corynebacterium pseudodiph. ATCC 9742; assay: as above; settings: read-out: Inhib. Zone Diam.
[7] = tested on: Staphylococcus aureus (res. methicillin) MB-2949; assay: as above; settings: read-out: Inhib. Zone Diam.
[8] = tested on: Klebsiella pneumoniae MB-1264; assay: as above; settings: read-out: Inhib. Zone Diam.
[9] = tested on: Bacillus subtilis ATCC 6633; assay: as above
[10] = tested on: Vibrio percolans ATCC 8461; assay: as above; settings: Comamonas terrigena, ATCC8461, read-out: Inhib. Zone Diam.
[11] = tested on: Serratia marcesens ATCC 990; assay: as above; settings: read-out: Inhib. Zone Diam.
[12] = tested on: Escherichia coli MB-1418; assay: as above; settings: read-out: Inhib. Zone Diam.
[13] = tested on: Proteus mirabilis MB-3126; assay: as above; settings: read-out: Inhib. Zone Diam.
[14] = tested on: Proteus vulgaris MB-1012; assay: as above; settings: read-out: Inhib. Zone Diam.
[15] = tested on: Staphylococcus aureus ATCC 6538 P; assay: as above
[16] = tested on: Vibrio percolans resistant to ceph. C) MB-2566; assay: as above; settings: Comamonas terrigena, read-out: Inhib. Zone Diam.
[17] = tested on: Pseudomonas aeruginosa MB-2824; assay: as above; settings: read-out: Inhib. Zone Diam.
[18] = tested on: Pseudomonas stutzeri ATCC 11607; assay: as above; settings: Stutzerimonas stutzeri, ATCC11607, read-out: Inhib. Zone Diam.
[19] = tested on: Streptococcus faecalis MB-753; assay: as above; settings: Enterococcus faecalis, MB753, read-out: Inhib. Zone Diam.
[20] = tested on: Brucella bronchiseptica ATCC 4617; assay: microbe, parasite or virus in culture; settings: Bordetella bronchiseptica, ATCC4617, read-out: Inhib. Zone Diam.
[21] = tested on: Vibrio percolans +2 × 10^5 units/ml. penicillinase MB-1272; assay: In vitro antibacterial spectrum profile, agar diffusion, with penicillinase; settings: Comamonas terrigena, read-out: Inhib. Zone Diam.
[22] = tested on: Salmonella gallinarum MB-1287; assay: In vitro antibacterial spectrum profile, agar diffusion; settings: Salmonella enterica, read-out: Inhib. Zone Diam.
[23] = tested on: Sarcina lutea ATCC 9341; assay: as above; settings: Micrococcus luteus, ATCC9341, read-out: Inhib. Zone Diam.
[24] = tested on: Pseudomonas aeruginosa MB-979; assay: as above; settings: read-out: Inhib. Zone Diam.
[25] = tested on: Aerobacter aerogenes MB-835; assay: as above; settings: Klebsiella aerogenes, MB835, read-out: Inhib. Zone Diam.
[26] = tested on: Xanthomonas vesicatoria MB-815; assay: as above; settings: read-out: Inhib. Zone Diam.
[27] = tested on: Streptococcus agalactiae MB-2875; assay: as above; settings: read-out: Inhib. Zone Diam.
[28] = 890A2 5 μg./ml., 1/4 inch paper disc
[29] = 890A5 33 μg./ml., 0.015 ml. droplet

CC(=O)NC=CSC1=C(C(=O)O)N2C(=O)C(C(C)O)C2C1 (stereo not drawn) [Antibiotic 890A2]
zone of inhibition at 5 µg/mL [1]: 31 mm
zone of inhibition at 5 µg/mL [2, 28]: 22 mm
zone of inhibition at 5 µg/mL ([3]; ATCC213, 890A2 5 μg./ml., 1/4 inch paper disc): 34 mm
zone of inhibition at 5 µg/mL ([4]; ATCC21100, 890A2 5 μg./ml., 1/4 inch paper disc): 30 mm
zone of inhibition at 5 µg/mL ([5]; MB698, 890A2 5 μg./ml., 1/4 inch paper disc): 30 mm
zone of inhibition at 5 µg/mL ([6]; ATCC9742, 890A2 5 μg./ml., 1/4 inch paper disc): 35 mm
zone of inhibition at 5 µg/mL [7, 28]: 11 mm
zone of inhibition at 5 µg/mL ([8]; MB1264, 890A2 5 μg./ml., 1/4 inch paper disc): 31 mm
zone of inhibition at 5 µg/mL ([9]; ATCC6633, 890A2 5 μg./ml., 1/4 inch paper disc, read-out: Inhib. Zone Diam.): 42 mm
zone of inhibition at 5 µg/mL [10, 28]: 31 mm
zone of inhibition at 5 µg/mL ([11]; ATCC990, 890A2 5 μg./ml., 1/4 inch paper disc): 23 mm
zone of inhibition at 5 µg/mL ([12]; MB1418, 890A2 5 μg./ml., 1/4 inch paper disc): 32 mm
zone of inhibition at 5 µg/mL ([13]; MB3126, 890A2 5 μg./ml., 1/4 inch paper disc): 22 mm
zone of inhibition at 5 µg/mL ([14]; MB1012, 890A2 5 μg./ml., 1/4 inch paper disc): 11 mm
zone of inhibition at 5 µg/mL ([15]; ATCC6538, read-out: Inhib. Zone Diam.): 34 mm
zone of inhibition at 5 µg/mL [16]: 11 mm
zone of inhibition at 5 µg/mL ([17]; MB2824, 890A2 5 μg./ml., 1/4 inch paper disc): 13 mm
zone of inhibition at 5 µg/mL [18, 28]: 19 mm
zone of inhibition at 5 µg/mL [19, 28]: 12 mm
zone of inhibition at 5 µg/mL [20]: 29 mm
zone of inhibition at 5 µg/mL [21, 28]: 7 mm
zone of inhibition at 5 µg/mL [22, 28]: 33 mm
zone of inhibition at 5 µg/mL [23, 28]: 42 mm
zone of inhibition at 5 µg/mL ([24]; MB979, 890A2 5 μg./ml., 1/4 inch paper disc): 0 mm
zone of inhibition at 5 µg/mL [25, 28]: 27 mm
zone of inhibition at 5 µg/mL ([26]; MB815, 890A2 5 μg./ml., 1/4 inch paper disc): 29 mm
zone of inhibition at 5 µg/mL ([27]; MB2875, 890A2 5 μg./ml., 1/4 inch paper disc): 32 mm

CC(=O)NC=CSC1=C(C(=O)O)N2C(=O)C(C(C)O)C2C1 (stereo not drawn) [Antibiotic 890A5]
zone of inhibition at 33 µg/mL [1]: 36 mm
zone of inhibition at 33 µg/mL [2, 29]: 0 mm
zone of inhibition at 33 µg/mL ([3]; ATCC213, 890A5 33 μg./ml., 0.015 ml. droplet): 25 mm
zone of inhibition at 33 µg/mL ([4]; ATCC21100, 890A5 33 μg./ml., 0.015 ml. droplet): 27 mm
zone of inhibition at 33 µg/mL ([5]; MB698, 890A5 33 μg./ml., 0.015 ml. droplet): 35 mm
zone of inhibition at 33 µg/mL ([6]; ATCC9742, 890A5 33 μg./ml., 0.015 ml. droplet): 33 mm
zone of inhibition at 33 µg/mL [7]: 15 mm
zone of inhibition at 33 µg/mL ([8]; MB1264, 890A5 33 μg./ml., 0.015 ml. droplet): 27 mm
zone of inhibition at 33 µg/mL ([9]; ATCC6633, read-out: Inhib. Zone Diam.): 27 mm
zone of inhibition at 33 µg/mL [10, 29]: 32 mm
zone of inhibition at 33 µg/mL ([11]; ATCC990, 890A5 33 μg./ml., 0.015 ml. droplet): 29 mm
zone of inhibition at 33 µg/mL ([12]; MB1418, 890A5 33 μg./ml., 0.015 ml. droplet): 27 mm
zone of inhibition at 33 µg/mL ([13]; MB3126, 890A5 33 μg./ml., 0.015 ml. droplet): 20 mm
zone of inhibition at 33 µg/mL ([14]; MB1012, 890A5 33 μg./ml., 0.015 ml. droplet): 23 mm
zone of inhibition at 33 µg/mL ([15]; ATCC6538, 890A5 33 μg./ml., 0.015 ml. droplet, read-out: Inhib. Zone Diam.): 34 mm
zone of inhibition at 33 µg/mL [16]: 35 mm
zone of inhibition at 33 µg/mL ([17]; MB2824, 890A5 33 μg./ml., 0.015 ml. droplet): 0 mm
zone of inhibition at 33 µg/mL [18, 29]: 14 mm
zone of inhibition at 33 µg/mL [19, 29]: 0 mm
zone of inhibition at 33 µg/mL [20]: 22 mm
zone of inhibition at 33 µg/mL [21, 29]: 40 mm
zone of inhibition at 33 µg/mL [22, 29]: 26 mm
zone of inhibition at 33 µg/mL [23, 29]: 40 mm
zone of inhibition at 33 µg/mL ([24]; MB979, 890A5 33 μg./ml., 0.015 ml. droplet): 0 mm
zone of inhibition at 33 µg/mL [25, 29]: 24 mm
zone of inhibition at 33 µg/mL ([26]; MB815, 890A5 33 μg./ml., 0.015 ml. droplet): 20 mm
zone of inhibition at 33 µg/mL ([27]; MB2875, 890A5 33 μg./ml., 0.015 ml. droplet): 27 mm
